According to patent US4493837A, “Theobromine derivatives” (Eisai Co., Ltd., priority 1979, dated 1985):

Tests used:
[1] = test system: femoral artery blood flow; assay: Blood flow-increasing action (average femoral artery blood flow after intraarterial injection, relative to papaverine); format: in vivo, mongrel dogs; details: anesthetized dogs, dose 0.03, 0.003 or 0.0003 mg/kg, papaverine 0.03 mg/kg = 1.00
Method: The blood flow at a femoral artery is measured by each of four male and female mongrel dogs weighing from 10 to 14 kg. That is, each subject is anesthetized by injecting intravenously 30 mg/kg of pentobarbital and one side femoral artery is exposed. A probe (2.5 mm diameter) of a magnetic blood flow meter (Model MF-26, a product of Nihon-Koden K.K.) is fitted to this artery and a catheter is inserted into and fixed to a side branch of this femoral artery. Intraarterial injection of 0.1 ml of the sample is then made and the average blood flow is measured. The dose of the sample is 0.03 mg/kg. When the blood flow-increasing action is strong, the dose is made 0.003 mg/kg and when the blood flow-increasing action is even stronger, it is made 0.0003 mg/kg in order to conduct the experiments. […] The numerical values in Table 1 represent the relative values of the compounds of this invention when the height of the blood flow-increase curve obtained by administration of 0.03 mg/kg papaverine is arbitrarily assigned the value 1.00. In other words, these values represent the ratio of the efficacy of the compounds of this invention relative to the activity of papaverine, with the latter being assigned the value 1.

[2] = test system: phenylquinone-induced writhing in mice; assay: Analgesic action: anti-writhing activity in mice (phenylquinone); format: in vivo; details: 4 mice
Method: The analgesic action of the compounds of the present invention was examined by the following experiment, using the writhing method disclosed in E. Siegmund et al; Proc. Soc. Exp. Biol. & Med., Vol. 95, 729 (1957).
Thirty minutes after subcutaneous injection of the compounds of the present invention, 2 mg/kg of phenylquinone was injected intraperitoneally to the mice. And 5 minutes later, the total number of writhes was counted for 4 minutes. Four mice were used for each dose level.

[3] = test system: grooming behavior in mice; assay: Inhibition of grooming behavior in mice; format: in vivo; details: for Number of grooming responses: 20-minutes count, 10 mice
Method: The grooming behavior-inhibiting action of the compounds of the present invention was examined by the following experiments, using the method disclosed in O. Rohte; Psychopharmacologia, Vol. 14, 18-22 (1969).
In this experiment, each sample (the compounds of the present invention, and chlorpromazine and diazepam as control medicines) was prepared in a form of 5% arabic gum suspension of 0.1 ml/10 g body weight of the animal.
Forty minutes after oral administration of each sample, the oily ink was painted on each mouse. And 10 minutes later, the number of grooming responses was counted for a 20-minutes period. A 5% arabic gum solution alone was administered to the control group.

[4] = test system: fighting behavior in mice; assay: Inhibition of the fighting behavior in mice; format: in vivo; details: for No. of fighting episodes: one hour after administration, 10 experiments
Source text: The anti-fighting action was examined in the following experiment, using the method disclosed in Ralph E. Tedeshi et al, Journal of Pharmacology and Experimental Therapeutics, Vol. 125, 28-34 (1959).
A pair of mice was placed in a plastic cage (16×10×18 cm) with the grid floor and applied electrical shocks (3 mA, 5 Hz, 50 msec.) during a 3-minutes period to their feet to induce the fighting behavior between the mice.
In this experiment, each sample (the compounds of the present invention, and chlorpromazine and diazepam as control medicines) was prepared in a form of a 5% arabic gum suspension and was orally administered to the mice. One hour after oral administration, the fighting behavior was observed. A 5% arabic gum solution was administered to the control group. Ten pairs of mice were used for each dose level.

COc1ccccc1N1CCN(CCCCCCn2c(=O)c3c(ncn3C)n(C)c2=O)CC1
Specific activity (blood flow increase relative to papaverine = 1) [1]: 404

Cn1cnc2c1c(=O)n(CCCCCN1CCN(c3ccccc3)CC1)c(=O)n2C
Specific activity (blood flow increase relative to papaverine = 1) [1]: 247

COc1ccccc1N1CCN(CCCn2c(=O)c3c(ncn3C)n(C)c2=O)CC1
Specific activity (blood flow increase relative to papaverine = 1) [1]: 143

COc1ccccc1N1CCN(CCn2c(=O)c3c(ncn3C)n(C)c2=O)CC1
Specific activity (blood flow increase relative to papaverine = 1) [1]: 95

Cc1cccc(C)c1N1CCN(CCCCn2c(=O)c3c(ncn3C)n(C)c2=O)CC1
% Inhibition (writhing) ([2]; 2.5 mg/kg s.c.): 0% | % Inhibition (writhing) ([2]; 5.0 mg/kg s.c.): 53% | % Inhibition (writhing) ([2]; 10.0 mg/kg s.c.): 77% | % Inhibition (writhing) ([2]; 25.0 mg/kg s.c.): 85%

Cn1cnc2c1c(=O)n(CCCCCN1CCN(c3ccccc3Cl)CC1)c(=O)n2C
% Inhibition (writhing) ([2]; 1.0 mg/kg s.c.): 0% | % Inhibition (writhing) ([2]; 2.5 mg/kg s.c.): 56% | % Inhibition (writhing) ([2]; 5.0 mg/kg s.c.): 87% | % Inhibition (writhing) ([2]; 10.0 mg/kg s.c.): 100%

Cn1cnc2c1c(=O)n(CCCCCCN1CCN(c3ccccc3Cl)CC1)c(=O)n2C
% Inhibition (writhing) ([2]; 0.25 mg/kg s.c.): 10% | % Inhibition (writhing) ([2]; 0.5 mg/kg s.c.): 70% | % Inhibition (writhing) ([2]; 1.0 mg/kg s.c.): 80% | % Inhibition (writhing) ([2]; 2.5 mg/kg s.c.): 90% | % Inhibition (writhing) ([2]; 5.0 mg/kg s.c.): 100%

COc1ccc(Cc2nccc3cc(OC)c(OC)cc23)cc1OC [Papaverine, reference compound]
Specific activity (blood flow increase relative to papaverine = 1) [1]: 1

CN(C)CCCN1c2ccccc2Sc2ccc(Cl)cc21 [chlorpromazine, reference compound]
% Inhibition (grooming responses) ([3]; 0.625 mg/kg P.O.): 30% | Number of grooming responses ([3]; 0.625 mg/kg P.O.): 21.4 ± 4.3 | % Inhibition (grooming responses) ([3]; 2.5 mg/kg P.O.): 91% | Number of grooming responses ([3]; 2.5 mg/kg P.O.): 2.9 ± 2.9 | % Inhibition (grooming responses) ([3]; 10 mg/kg P.O.): 61% | Number of grooming responses ([3]; 10 mg/kg P.O.): 5.8 ± 5.8 | % Inhibition (grooming responses) ([3]; 40 mg/kg P.O.): 80% | Number of grooming responses ([3]; 40 mg/kg P.O.): 5.9 ± 5.9 | % Inhibition (fighting episodes) ([4]; 0.625 mg/kg P.O.): 30% | No. of fighting episodes ([4]; 0.625 mg/kg P.O.): 3.9 ± 0.8 | % Inhibition (fighting episodes) ([4]; 2.5 mg/kg P.O.): 45% | No. of fighting episodes ([4]; 2.5 mg/kg P.O.): 3.1 ± 1.0

CN1C(=O)CN=C(c2ccccc2)c2cc(Cl)ccc21 [diazepam, reference compound]
% Inhibition (grooming responses) ([3]; 0.625 mg/kg P.O.): 53% | Number of grooming responses ([3]; 0.625 mg/kg P.O.): 14.3 ± 4.2 | % Inhibition (grooming responses) ([3]; 2.5 mg/kg P.O.): 68% | Number of grooming responses ([3]; 2.5 mg/kg P.O.): 9.5 ± 5.2 | % Inhibition (grooming responses) ([3]; 10 mg/kg P.O.): 75% | Number of grooming responses ([3]; 10 mg/kg P.O.): 7.6 ± 3.2 | % Inhibition (fighting episodes) ([4]; 0.625 mg/kg P.O.): 29% | No. of fighting episodes ([4]; 0.625 mg/kg P.O.): 4.0 ± 1.0 | % Inhibition (fighting episodes) ([4]; 1.25 mg/kg P.O.): 63% | No. of fighting episodes ([4]; 1.25 mg/kg P.O.): 2.1 ± 0.9

Cn1cnc2c1c(=O)n(CCCCN1CCN(c3cccc(C(F)(F)F)c3)CC1)c(=O)n2C [drawing 17]
% Inhibition (grooming responses) ([3]; 0.625 mg/kg P.O.): 49% | Number of grooming responses ([3]; 0.625 mg/kg P.O.): 15.5 ± 5.8 | % Inhibition (grooming responses) ([3]; 2.5 mg/kg P.O.): 46% | Number of grooming responses ([3]; 2.5 mg/kg P.O.): 16.5 ± 5.9 | % Inhibition (grooming responses) ([3]; 10 mg/kg P.O.): 95% | Number of grooming responses ([3]; 10 mg/kg P.O.): 1.6 ± 1.6 | % Inhibition (grooming responses) ([3]; 40 mg/kg P.O.): 100% | Number of grooming responses ([3]; 40 mg/kg P.O.): 0

COc1ccccc1N1CCN(CCCCn2c(=O)c3c(ncn3C)n(C)c2=O)CC1 [drawing 18]
% Inhibition (grooming responses) ([3]; 0.625 mg/kg P.O.): 23% | Number of grooming responses ([3]; 0.625 mg/kg P.O.): 23.4 ± 6.1 | % Inhibition (grooming responses) ([3]; 2.5 mg/kg P.O.): 49% | Number of grooming responses ([3]; 2.5 mg/kg P.O.): 15.6 ± 4.5 | % Inhibition (grooming responses) ([3]; 10 mg/kg P.O.): 68% | Number of grooming responses ([3]; 10 mg/kg P.O.): 9.5 ± 4.1 | % Inhibition (grooming responses) ([3]; 40 mg/kg P.O.): 100% | Number of grooming responses ([3]; 40 mg/kg P.O.): 0

Cn1cnc2c1c(=O)n(CCCCN1CCN(c3cccc(C(F)(F)F)c3)CC1)c(=O)n2C [drawing 19]
% Inhibition (fighting episodes) ([4]; 0.625 mg/kg P.O.): 25% | No. of fighting episodes ([4]; 0.625 mg/kg P.O.): 4.2 ± 0.7 | % Inhibition (fighting episodes) ([4]; 2.5 mg/kg P.O.): 81% | No. of fighting episodes ([4]; 2.5 mg/kg P.O.): 1.0

COc1ccccc1N1CCN(CCCCn2c(=O)c3c(ncn3C)n(C)c2=O)CC1 [drawing 20]
% Inhibition (fighting episodes) ([4]; 0.625 mg/kg P.O.): 41% | No. of fighting episodes ([4]; 0.625 mg/kg P.O.): 3.3 ± 0.7 | % Inhibition (fighting episodes) ([4]; 2.5 mg/kg P.O.): 71% | No. of fighting episodes ([4]; 2.5 mg/kg P.O.): 1.6
